Experimental data: ChEMBL document CHEMBL1135177 (Bioorg Med Chem Lett, 2002)

Tests used:
Type in all cases: cell-based
[1] = molecular target: T1, Muscarinic acetylcholine receptor M1 (Homo sapiens, UniProt P11229); assay: Binding affinity against human muscarine receptor (hM1) cloned in CHO cells
T1 sequence (P11229 whole entry): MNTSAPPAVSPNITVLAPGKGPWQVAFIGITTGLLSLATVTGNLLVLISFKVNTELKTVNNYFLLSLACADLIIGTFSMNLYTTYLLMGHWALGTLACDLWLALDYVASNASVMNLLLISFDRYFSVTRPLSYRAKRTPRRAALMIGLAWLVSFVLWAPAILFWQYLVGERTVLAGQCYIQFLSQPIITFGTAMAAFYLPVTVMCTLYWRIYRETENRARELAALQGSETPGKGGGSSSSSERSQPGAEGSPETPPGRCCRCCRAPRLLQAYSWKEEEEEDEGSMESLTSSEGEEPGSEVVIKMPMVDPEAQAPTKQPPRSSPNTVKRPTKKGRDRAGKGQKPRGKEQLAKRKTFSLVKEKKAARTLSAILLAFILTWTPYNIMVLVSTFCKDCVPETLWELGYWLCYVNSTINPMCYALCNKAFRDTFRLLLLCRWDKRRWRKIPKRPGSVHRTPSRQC

[2] = molecular target: T2, Muscarinic acetylcholine receptor M2 (Homo sapiens, UniProt P08172); assay: Binding affinity against human muscarine receptor (hM2) cloned in CHO cells
T2 sequence (P08172 whole entry): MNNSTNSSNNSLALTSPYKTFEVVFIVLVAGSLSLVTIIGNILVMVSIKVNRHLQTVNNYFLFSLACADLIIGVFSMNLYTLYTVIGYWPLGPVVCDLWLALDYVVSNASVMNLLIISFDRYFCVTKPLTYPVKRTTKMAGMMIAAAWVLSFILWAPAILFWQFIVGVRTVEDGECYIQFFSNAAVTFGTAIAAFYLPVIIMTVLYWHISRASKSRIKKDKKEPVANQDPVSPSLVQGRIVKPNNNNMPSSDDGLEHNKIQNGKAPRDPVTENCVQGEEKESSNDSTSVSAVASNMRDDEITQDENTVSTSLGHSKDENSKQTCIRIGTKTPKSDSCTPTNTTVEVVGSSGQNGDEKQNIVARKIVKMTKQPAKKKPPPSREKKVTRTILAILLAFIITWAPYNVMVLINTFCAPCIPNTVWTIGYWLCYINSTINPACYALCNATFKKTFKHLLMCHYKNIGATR

[3] = molecular target: Muscarinic acetylcholine receptor M3 (Homo sapiens, UniProt P20309); assay: Binding affinity against human muscarine receptor (hM3) cloned in CHO cells
Chain of Muscarinic acetylcholine receptor M3 (P20309 whole entry): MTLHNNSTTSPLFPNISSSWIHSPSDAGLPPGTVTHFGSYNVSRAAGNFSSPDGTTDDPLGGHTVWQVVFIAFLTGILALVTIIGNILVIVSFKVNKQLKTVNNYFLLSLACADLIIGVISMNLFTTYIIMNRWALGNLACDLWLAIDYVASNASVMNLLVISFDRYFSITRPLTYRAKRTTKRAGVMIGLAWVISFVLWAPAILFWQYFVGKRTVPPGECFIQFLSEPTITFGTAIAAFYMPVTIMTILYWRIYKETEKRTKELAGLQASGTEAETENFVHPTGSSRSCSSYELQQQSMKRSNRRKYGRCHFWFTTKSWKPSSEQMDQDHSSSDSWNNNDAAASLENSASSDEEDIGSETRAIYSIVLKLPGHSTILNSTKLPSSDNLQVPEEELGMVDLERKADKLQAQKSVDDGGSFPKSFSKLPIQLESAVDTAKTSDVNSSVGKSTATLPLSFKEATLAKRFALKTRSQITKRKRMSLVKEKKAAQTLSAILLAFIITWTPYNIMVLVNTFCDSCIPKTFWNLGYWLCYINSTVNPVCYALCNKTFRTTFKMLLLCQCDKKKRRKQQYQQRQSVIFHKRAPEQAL

[4] = molecular target: T3, Muscarinic acetylcholine receptor M4 (Homo sapiens, UniProt P08173); assay: Binding affinity against human muscarine receptor (hM4) cloned in CHO cells
T3 sequence (P08173 whole entry): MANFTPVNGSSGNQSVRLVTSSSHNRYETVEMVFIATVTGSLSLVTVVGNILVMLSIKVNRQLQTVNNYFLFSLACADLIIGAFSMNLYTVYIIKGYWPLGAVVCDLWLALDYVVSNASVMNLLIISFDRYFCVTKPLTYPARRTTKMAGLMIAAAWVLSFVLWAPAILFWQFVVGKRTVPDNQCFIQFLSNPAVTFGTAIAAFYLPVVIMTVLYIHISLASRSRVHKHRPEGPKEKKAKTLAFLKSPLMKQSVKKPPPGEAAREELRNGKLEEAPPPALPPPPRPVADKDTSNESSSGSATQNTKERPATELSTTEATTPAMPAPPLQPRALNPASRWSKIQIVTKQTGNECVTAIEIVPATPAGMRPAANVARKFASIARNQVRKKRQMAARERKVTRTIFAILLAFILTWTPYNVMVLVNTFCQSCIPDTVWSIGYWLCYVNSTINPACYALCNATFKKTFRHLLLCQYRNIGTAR

C[C@@H]1OC(=O)[C@H]2C[C@H]3CCCC[C@H]3[C@H](C#C[C@H]3CCC[C@H](C)N3C)[C@@H]12 was tested, and the Ki [1] was 5.37 µM, the Ki [2] was 1.15 µM and the Ki [3] was 5.01 µM. It also gave a Ki [4] of 1.74 µM.
With C[C@@H]1OC(=O)[C@H]2C[C@H]3CCCC[C@@H]3[C@@H](C#C[C@H]3CCC[C@H](C)N3C)[C@@H]12 the Ki [1] was 3.24 µM, the Ki [2] was 0.309 µM and the Ki [3] was 3.31 µM. For the same compound, the Ki [4] was 0.891 µM.
C[C@@H]1OC(=O)[C@@H]2C[C@@H]3CCCC[C@@H]3[C@@H](/C=C/[C@H]3CCC[C@H](C)N3C)[C@H]12 was tested, and the Ki [1] was 0.427 µM and the Ki [2] was 0.0955 µM.
C[C@@H]1OC(=O)[C@@H]2C[C@@H]3CCCC[C@@H]3[C@@H](C#C[C@H]3CCC[C@H](C)N3C)[C@H]12 was tested, and the Ki [1] was 3.24 µM, the Ki [2] was 1.17 µM and the Ki [3] was 11 µM. For the same compound, the Ki [4] was 1.95 µM.
Compound C[C@@H]1OC(=O)[C@H]2C[C@H]3CCCC[C@@H]3[C@@H](/C=C\[C@H]3CCC[C@H](C)N3C)[C@@H]12 has a Ki [1] of 1.51 µM and a Ki [2] of 1.74 µM.
Compound C[C@@H]1OC(=O)[C@@H]2C[C@@H]3CCCC[C@@H]3[C@@H](/C=C\[C@H]3CCC[C@H](C)N3C)[C@H]12 has a Ki [1] of 2.34 µM and a Ki [2] of 0.676 µM.
C[C@@H]1OC(=O)[C@H]2C[C@H]3CCCC[C@H]3[C@H](/C=C/[C@H]3CCC[C@H](C)N3C)[C@@H]12 showed a Ki [1] of 1.74 µM and a Ki [2] of 0.17 µM.
With C[C@@H]1OC(=O)[C@H]2C[C@H]3CCCC[C@H]3[C@H](/C=C\[C@H]3CCC[C@H](C)N3C)[C@@H]12 the Ki [1] was 2.57 µM and the Ki [2] was 0.851 µM.
C[C@@H]1OC(=O)[C@H]2C[C@H]3CCCC[C@@H]3[C@@H](/C=C/[C@H]3CCC[C@H](C)N3C)[C@@H]12 [HIMBACINE] gave a Ki [1] of 0.158 µM and a Ki [2] of 0.00468 µM.
